For 21 molecules, IC50 results are on record in patent US20260207602A1, “EGFR INHIBITORS” (Blueprint Medicines Corporation, priority 2022, published 2026).

For assay [1], the target named is T1, EGFR (d746-750) (Homo sapiens, UniProt P00533, DEL746-750).
T1 construct: purchased SignalChem E10-122JG
Briefly: Biochemical EGFR inhibition assay (Caliper mobility shift), EGFR (d746-750). Particulars: biochemical Caliper mobility shift assay, EGFR Exon 19-del enzyme; read-out: Enz EGFR Exon 19-del IC50. Here is the method: Inhibitory effects of the compounds of the disclosure were measured in biochemical assays that measure the phosphorylation activity of EGFR enzyme phosphorylates 2.5 micromolar 5-FAM-[…]-CONH2 peptide substrate (ProfilerPro Kinase Peptide Substrate 22, PerkinElmer, Part #760366) in the presence of adenosine-5′-triphosphate (ATP) and varying concentrations of the test compound in 100 mM 2-[4-(2-hydroxyethyl)piperazin-1-yl]ethanesulfonic acid (HEPES), pH 7.5, 10 mM MgCl2, 0.015% Brij-35, 1 mM dithiothreitol (DTT), 1.0% dimehylsulfoxide (DMSO). Assays were performed at 1.0 mM ATP or at ATP Km of the EGFR enzymes. Reactions proceeded until between 10% to 20% total peptides were phosphorylated at room temperature (25° C.) and were terminated with 35 mM 2,2′,2″,2′″-(ethane-1,2-diyldinitrilo)tetraacetic acid (EDTA). Product was detected using the Caliper mobility shift detection method where the phosphorylated peptide (product) and substrate were electrophoretically separated and measured. Percent activity was plotted against log concentration of compound and points to generate an apparent IC50. The following enzyme forms of • EGFR were examples that were used in these assays: • EGFR WT (SignalChem, E10-112G) • EGFR L858R (SignalChem, E10-122BG) • EGFR (d746-750) (SignalChem, E10-122JG) • EGFR L858R C797S (SignalChem, E10-122ZG) • EGFR (d746-750) C797S (SignalChem, E10-122TG)

Assay [2] deals with T2, EGFR L858R (Homo sapiens, UniProt P00533, L858R).
T2 construct: purchased SignalChem E10-122BG
T2 sequence (P00533 25-1210 L858R): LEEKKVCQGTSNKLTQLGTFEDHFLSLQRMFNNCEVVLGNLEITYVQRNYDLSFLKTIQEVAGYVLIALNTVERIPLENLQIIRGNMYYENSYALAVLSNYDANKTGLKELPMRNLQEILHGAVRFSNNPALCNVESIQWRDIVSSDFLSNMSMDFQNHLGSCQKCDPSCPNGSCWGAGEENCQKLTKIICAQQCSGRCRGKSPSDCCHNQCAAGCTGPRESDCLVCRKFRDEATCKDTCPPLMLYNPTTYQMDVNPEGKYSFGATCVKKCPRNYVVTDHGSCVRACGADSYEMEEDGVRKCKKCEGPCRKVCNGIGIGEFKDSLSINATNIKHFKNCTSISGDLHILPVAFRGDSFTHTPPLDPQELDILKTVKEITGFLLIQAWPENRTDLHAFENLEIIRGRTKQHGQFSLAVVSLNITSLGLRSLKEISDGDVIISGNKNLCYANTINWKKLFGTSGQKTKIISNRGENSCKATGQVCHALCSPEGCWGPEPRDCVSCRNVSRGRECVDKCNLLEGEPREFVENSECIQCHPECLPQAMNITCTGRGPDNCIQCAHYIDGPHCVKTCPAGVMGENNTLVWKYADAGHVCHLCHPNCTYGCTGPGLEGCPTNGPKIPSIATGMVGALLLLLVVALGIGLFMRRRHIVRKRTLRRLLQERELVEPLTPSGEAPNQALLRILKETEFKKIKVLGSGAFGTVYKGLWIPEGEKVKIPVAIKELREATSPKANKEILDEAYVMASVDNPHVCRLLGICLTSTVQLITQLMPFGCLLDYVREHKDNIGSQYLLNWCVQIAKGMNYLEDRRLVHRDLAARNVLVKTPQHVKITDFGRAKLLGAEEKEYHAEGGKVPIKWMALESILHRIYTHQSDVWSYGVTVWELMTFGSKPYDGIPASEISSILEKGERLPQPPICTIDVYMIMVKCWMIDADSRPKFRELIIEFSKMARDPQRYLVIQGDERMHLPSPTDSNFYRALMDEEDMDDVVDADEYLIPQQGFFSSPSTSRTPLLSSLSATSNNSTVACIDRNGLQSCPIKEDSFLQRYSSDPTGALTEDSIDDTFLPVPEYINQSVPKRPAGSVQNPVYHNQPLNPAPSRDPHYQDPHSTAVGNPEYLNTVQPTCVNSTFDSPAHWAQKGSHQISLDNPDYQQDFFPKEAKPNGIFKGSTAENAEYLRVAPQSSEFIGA
The assay is described as follows: Biochemical EGFR inhibition assay (Caliper mobility shift), EGFR L858R. Particulars: biochemical Caliper mobility shift assay, EGFR L858R enzyme; read-out: Enz EGFR L858R IC50. In short, it runs like this:
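Peptide phosphorylation by the mutant enzyme is followed at 25 °C with either 1.0 mM ATP or ATP at Km, in HEPES pH 7.5 containing 0.015% Brij-35 and 1.0% DMSO. After 10–20% substrate turnover, 35 mM EDTA ends the reaction and mobility shift quantifies product.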

In assay [3] the target is intracellular phosphorylation of EGFR (Tyr1068) in PC-9 cells (Homo sapiens, UniProt P00533, DEL746-750). The assay is described as follows: PC-9 pEGFR AlphaLISA assay. Format: cell-based. Conditions: 4 hours incubation, read-out: Phos EGFR PC9 IC50. In short, it runs like this: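 PC-9 cells (EGFR del746-750) in phenol-free DMEM/10% FBS, adhered overnight, then exposed to 10-point 4-fold compound dilutions for 4 h at 37 °C. Lysates assayed for pEGFR Tyr1068 by AlphaLISA SureFire Ultra; IC50 from percent pEGFR inhibition vs log concentration.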
intracellular phosphorylation of EGFR (Tyr1068) in PC-9 cells, sequence (P00533 with tags, fused parts or gaps DEL746-750): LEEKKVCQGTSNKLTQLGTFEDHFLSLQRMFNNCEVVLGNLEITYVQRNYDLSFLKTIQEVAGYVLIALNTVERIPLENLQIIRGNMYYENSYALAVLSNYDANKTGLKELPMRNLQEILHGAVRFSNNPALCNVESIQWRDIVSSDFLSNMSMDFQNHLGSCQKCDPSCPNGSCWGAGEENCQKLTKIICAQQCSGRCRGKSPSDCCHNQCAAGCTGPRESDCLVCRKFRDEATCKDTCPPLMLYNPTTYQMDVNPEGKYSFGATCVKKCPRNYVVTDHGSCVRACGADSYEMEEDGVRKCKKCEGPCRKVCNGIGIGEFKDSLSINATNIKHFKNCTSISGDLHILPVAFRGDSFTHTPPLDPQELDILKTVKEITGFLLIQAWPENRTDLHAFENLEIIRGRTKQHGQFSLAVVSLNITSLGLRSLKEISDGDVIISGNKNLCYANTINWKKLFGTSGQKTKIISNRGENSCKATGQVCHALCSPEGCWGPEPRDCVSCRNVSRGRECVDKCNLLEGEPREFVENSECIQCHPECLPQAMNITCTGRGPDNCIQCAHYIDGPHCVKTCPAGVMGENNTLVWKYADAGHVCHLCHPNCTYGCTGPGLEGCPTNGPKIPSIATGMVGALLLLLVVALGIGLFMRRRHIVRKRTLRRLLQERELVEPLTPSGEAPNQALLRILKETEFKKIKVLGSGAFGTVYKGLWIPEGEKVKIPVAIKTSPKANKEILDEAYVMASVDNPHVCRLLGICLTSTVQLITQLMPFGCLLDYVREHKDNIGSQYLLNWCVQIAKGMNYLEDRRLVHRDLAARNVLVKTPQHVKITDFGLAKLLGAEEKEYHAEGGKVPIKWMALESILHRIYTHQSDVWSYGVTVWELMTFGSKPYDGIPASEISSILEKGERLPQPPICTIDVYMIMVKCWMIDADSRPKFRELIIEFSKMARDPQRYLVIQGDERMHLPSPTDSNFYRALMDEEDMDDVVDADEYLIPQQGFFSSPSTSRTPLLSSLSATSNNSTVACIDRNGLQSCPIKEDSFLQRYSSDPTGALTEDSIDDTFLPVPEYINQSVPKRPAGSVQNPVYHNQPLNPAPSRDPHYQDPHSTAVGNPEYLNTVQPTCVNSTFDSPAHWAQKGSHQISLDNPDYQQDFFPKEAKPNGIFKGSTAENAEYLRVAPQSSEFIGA
For orientation: In Alpha technology, singlet oxygen from a donor bead excites a nearby acceptor bead.

Bounds are passed on as bounds.

T1 sequence (P00533 with tags, fused parts or gaps DEL746-750 limits assumed): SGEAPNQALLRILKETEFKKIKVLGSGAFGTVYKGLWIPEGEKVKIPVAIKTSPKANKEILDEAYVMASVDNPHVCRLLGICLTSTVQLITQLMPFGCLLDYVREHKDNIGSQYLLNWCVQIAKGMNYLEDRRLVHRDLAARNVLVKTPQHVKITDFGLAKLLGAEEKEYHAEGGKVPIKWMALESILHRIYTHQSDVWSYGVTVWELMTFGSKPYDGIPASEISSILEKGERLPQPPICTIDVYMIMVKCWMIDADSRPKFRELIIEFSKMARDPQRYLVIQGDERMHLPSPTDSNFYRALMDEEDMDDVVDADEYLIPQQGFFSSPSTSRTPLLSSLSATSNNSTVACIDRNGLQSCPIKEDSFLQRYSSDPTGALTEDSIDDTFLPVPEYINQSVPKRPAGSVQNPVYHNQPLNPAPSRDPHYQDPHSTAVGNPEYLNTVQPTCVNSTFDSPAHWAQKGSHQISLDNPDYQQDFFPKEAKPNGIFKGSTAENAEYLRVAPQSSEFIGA

One may read the IC50 as the concentration that gives 50% inhibition. Take `COc1cc2ncnc(Nc3ccc4ncsc4c3)c2cc1-c1cnn(CC2CCN(C)CC2)c1` [Example 242, N-(7-methoxy-6-(1-((1-methylpiperidin-4-yl)methyl)-1H-pyrazol-4-yl)quinazolin-4-yl)benzo[d]thiazol-6-amine]: the figures for the IC50 in assay [1], in assay [2] and in assay [3] were at most 10 nM, at most 10 nM and 10.1 to 50 nM, respectively.

Take `Cn1cc(-c2cc(OC[C@]34COC[C@H]3C4)c3c(Nc4ccc5ncsc5c4)ncnc3c2)cn1` (single isomer, unassigned) [Example 147]: the figures for the IC50 in assay [1], in assay [2] and in assay [3] were at most 10 nM, 10.1 to 50 nM and 10.1 to 50 nM, respectively.

As for `COc1nn(C)cc1-c1cc(OC2CCN(C)CC2(F)F)c2c(Nc3ccc4ncsc4c3)ncnc2c1` (stereo not drawn) [Example 1, N-(5-((3,3-difluoro-1-methylpiperidin-4-yl)oxy)-7-(3-methoxy-1-methyl-1H-pyrazol-4-yl)quinazolin-4-yl)benzo[d]thiazol-6-amine], the IC50 in assay [1], in assay [2] and in assay [3] was at most 10 nM each time.

Regarding `COc1nn(C)cc1-c1cc(OC2COC2)c2c(Nc3ccc4ncsc4c3)ncnc2c1` [Example 18, N-(7-(3-methoxy-1-methyl-1H-pyrazol-4-yl)-5-(oxetan-3-yloxy)quinazolin-4-yl)benzo[d]thiazol-6-amine], the IC50 in assay [1], in assay [2] and in assay [3] was at most 10 nM throughout.

On to `CN1CCN(CC#Cc2cc(OC3CCOCC3)c3c(Nc4ccc5ncsc5c4F)ncnc3c2)CC1` [Example A24, 7-fluoro-N-(7-(3-(4-methylpiperazin-1-yl)prop-1-yn-1-yl)-5-((tetrahydro-2H-pyran-4-yl)oxy)quinazolin-4-yl)benzo[d]thiazol-6-amine], for which the IC50 in assay [1] is 10.1 to 50 nM; in assay [2], over 50.1 nM; in assay [3] it was 10.1 to 50 nM.

In the case of `C[C@@H](CN(C)C)Oc1cc(N2CCN(C)CC2)cc2ncnc(Nc3ccc4ncsc4c3)c12` (single isomer, unassigned) [Example 116], the IC50 was 10.1 to 50 nM in assay [1], over 50.1 nM in assay [2] and over 50.1 nM in assay [3].

With `COc1nn(C)cc1-c1cc(O[C@@H]2CN(C)C[C@H]2F)c2c(Nc3ccc4ncsc4c3)ncnc2c1` (racemic) [Example 376, N-(5-(((3S,4S)-4-fluoro-1-methylpyrrolidin-3-yl)oxy)-7-(3-methoxy-1-methyl-1H-pyrazol-4-yl)quinazolin-4-yl)benzo[d]thiazol-6-amine and N-(5-(((3R,4R)-4-fluoro-1-methylpyrrolidin-3-yl)oxy)-7-(3-methoxy-1-methyl-1H-pyrazol-4-yl)quinazolin-4-yl)benzo[d]thiazol-6-amine], the IC50 in assay [1] was at most 10 nM; in assay [2] it was at most 10 nM; in assay [3], 10.1 to 50 nM.

Take `COCCOc1cc(O[C@H](C)C2COC2)c2c(Nc3ccc4ncsc4c3F)ncnc2c1` (single isomer, unassigned) [Example 84]: the IC50 in assay [1], in assay [2] and in assay [3] was at most 10 nM throughout.

Turning to `CNC[C@@H](C)Oc1cc(-c2cnn(C)c2)cc2ncnc(Nc3ccc4ncsc4c3)c12` [Example 396, (R)-N-(7-(1-methyl-1H-pyrazol-4-yl)-5-((1-(methylamino)propan-2-yl)oxy)quinazolin-4-yl)benzo[d]thiazol-6-amine], the IC50 in assay [1] was at most 10 nM; in assay [2] it was 10.1 to 50 nM; in assay [3] it was at most 10 nM.

As for `C[C@@H](CN(C)C)Oc1cc(-c2cnn(C)c2)cc2ncnc(Nc3ccc4ncsc4c3)c12` (single isomer, unassigned) [Example 160, (R)—N-(5-((1-(dimethylamino)propan-2-yl)oxy)-7-(1-methyl-1H-pyrazol-4-yl)quinazolin-4-yl)benzo[d]thiazol-6-amine or (S)—N-(5-((1-(dimethylamino)propan-2-yl)oxy)-7-(1-methyl-1H-pyrazol-4-yl)quinazolin-4-yl)benzo[d]thiazol-6-amine], the IC50 in assay [1], in assay [2] and in assay [3] was at most 10 nM throughout.

As to `Cn1cc(-c2cc(OCC3CCOC3)c3c(Nc4ccc5ncsc5c4)ncnc3c2)cn1` (stereo not drawn) [Example 413, N-(7-(1-methyl-1H-pyrazol-4-yl)-5-((tetrahydrofuran-3-yl)methoxy)quinazolin-4-yl)benzo[d]thiazol-6-amine], the IC50 was at most 10 nM in assay [1], at most 10 nM in assay [2] and 10.1 to 50 nM in assay [3].

For `CC(Oc1cc(N2CCN(C)C3CC32)cc2ncnc(Nc3ccc4ncsc4c3)c12)C1COC1` [Example 300, N-(7-((1R,6S)-5-methyl-2,5-diazabicyclo[4.1.0]heptan-2-yl)-5-((R)-1-(oxetan-3-yl)ethoxy)quinazolin-4-yl)benzo[d]thiazol-6-amine, OR N-(7-((1S,6R)-5-methyl-2,5-diazabicyclo[4.1.0]heptan-2-yl)-5-((R)-1-(oxetan-3-yl)ethoxy)quinazolin-4-yl)benzo[d]thiazol-6-amine], the IC50 in assay [1] was at most 10 nM; in assay [2], 10.1 to 50 nM; in assay [3] it was at most 10 nM.

As for `Cn1cc(-c2cc(O[C@H]3CCNC[C@H]3F)c3c(Nc4ccc5ncsc5c4)ncnc3c2)c(OC(F)F)n1` [Example 366, N-(7-(3-(difluoromethoxy)-1-methyl-1H-pyrazol-4-yl)-5-(((3R,4S)-3-fluoropiperidin-4-yl)oxy)quinazolin-4-yl)benzo[d]thiazol-6-amine], the IC50 was at most 10 nM in assay [1], 10.1 to 50 nM in assay [2] and at most 10 nM in assay [3].

Consider `C[C@@H](Oc1cc(-c2cnn(C)c2)cc2ncnc(Nc3ccc4ncsc4c3)c12)C1CN(C)C1` (single isomer, unassigned) [Example 384], for which the IC50 in assay [1], in assay [2] and in assay [3] was 10.1 to 50 nM each time.

With `COc1nn(C)cc1-c1cc(O[C@H]2CCCN(C)C2)c2c(Nc3ccc4ncsc4c3)ncnc2c1` [Example 12, (S)-N-(7-(3-methoxy-1-methyl-1H-pyrazol-4-yl)-5-((1-methylpiperidin-3-yl)oxy)quinazolin-4-yl)benzo[d]thiazol-6-amine], the IC50 in assay [1], in assay [2] and in assay [3] was at most 10 nM throughout.

Regarding `CN1CCC(n2cc(-c3cc4ncnc(Nc5ccc6ncsc6c5F)c4cc3F)cn2)CC1` [Example 356, 7-fluoro-N-(6-fluoro-7-(1-(1-methylpiperidin-4-yl)-1H-pyrazol-4-yl)quinazolin-4-yl)benzo[d]thiazol-6-amine], the IC50 in assay [1], in assay [2] and in assay [3] was at most 10 nM in each case.

`COc1cc2c(Nc3ccc4ncsc4c3)ncnc2cc1-c1cnn(C)c1` [Example 263, N-(6-methoxy-7-(1-methyl-1H-pyrazol-4-yl)quinazolin-4-yl)benzo[d]thiazol-6-amine]: the IC50 in assay [1], in assay [2] and in assay [3] was at most 10 nM each time.

Consider `C[C@@H](Oc1cc(-c2cnn(C)c2)cc2ncnc(Nc3ccc4ncsc4c3F)c12)C1(C)COC1` (single isomer, unassigned) [Example 86], for which the IC50 in assay [1], in assay [2] and in assay [3] was at most 10 nM throughout.

Turning to `CN1CCC(COc2cc(-c3cnn(C)c3)cc3ncnc(Nc4ccc5ncsc5c4)c23)C1=O` (stereo not drawn) [Example 61, 3-(((4-(benzo[d]thiazol-6-ylamino)-7-(1-methyl-1H-pyrazol-4-yl)quinazolin-5-yl)oxy)methyl)-1-methylpyrrolidin-2-one], the IC50 in assay [1] was at most 10 nM; in assay [2], at most 10 nM; in assay [3] it was 10.1 to 50 nM.

For `Cn1cc(-c2cc(O[C@H]3CNC[C@@H]3F)c3c(Nc4ccc5ncsc5c4)ncnc3c2)cn1` [Example 382, N-(5-(((3S,4S)-4-fluoropyrrolidin-3-yl)oxy)-7-(1-methyl-1H-pyrazol-4-yl)quinazolin-4-yl)benzo[d]thiazol-6-amine], the IC50 in assay [1] is at most 10 nM; in assay [2], 10.1 to 50 nM; in assay [3] it was over 50.1 nM.

For `COC[C@H](C)Oc1cc(-c2cnn(C)c2)cc2ncnc(Nc3ccc4ncsc4c3F)c12` [Example 139, (S)-7-fluoro-N-(5-((1-methoxypropan-2-yl)oxy)-7-(1-methyl-1H-pyrazol-4-yl)quinazolin-4-yl)benzo[d]thiazol-6-amine], the IC50 in assay [1], in assay [2] and in assay [3] was at most 10 nM each time.
